Assays:
IGFBP7 protein = IGFBP7 protein expression (immunoblotting) in rat neonatal cardiomyocytes treated with hypertrophic stimuli; assay type: cell-based; conditions: vs solvent treated control
Procedure: In order to investigate where Igfbp7 is localized under stress, immunofluorescent staining were used to visualize Igfbp7 in rNCM 2 and 24 hours post treatment. As shown in FIG. 3(b), Igfbp7 were evenly distributed in untreated control cells. Hypertrophic stimuli not only led to increased Igfbp7 expression, but also led to Igfbp7 being localized to the cell membrane. Co-immunostaining with FM1-43 as shown (FIG. 3(c)), upon isoproterenol treatment, Igfbp7 (red) not only moved to cell membrane region, but also co-localized with FM1-43 labeled membrane bound vesicle (green), indicating Igfbp7 was trapped into the membrane bound vesicles for secretion.
NC represents solvent treated control. FIGS. 3(b) and 3(c) show representative confocal microscopy images. […] IGFBP7 was immunofluoresently stained with Alexa Fluor 555 labeled anti-IGFBP7 antibody.
Whole-cell lysates from tissue and cell samples were prepared on ice with Cell Lysis Buffer (Cell Signaling, 9803) containing a Complete cocktail of proteases inhibitors (Roche Applied Science, 05892791001). Lysates were cleared by centrifugation at 12,000 rpm for 10 min. The supernatants were collected and protein concentrations determined using the Bio-Rad Bradford protein assay (Bio-Rad, 500-0006). 20 μg of protein lysate were separated by Bolt Bis-Tris Plus mini Gel System (ThermoFisher) and electrophoretically transferred to PVDF membranes (Bio-Rad, 162-0177). Membranes were incubated overnight at 4° C. with antibodies reactive to the following proteins: IGFBP7 (Abcam, ab171085, 1:1000), CTGF (Abcam, ab6992, 1:1000), 53BP1 (Santa Cruz Biotechnology, sc-22760, 1:200), p21 (Santa Cruz Biotechnology, sc-397, 1:200), Acetyl-p53 (Lys379) (Cell Signaling, #2570, 1:1000), p53 (1C12) (Cell Signaling, #2524, 1:1000), Phospho-IRS-1 (Ser612) (Cell Signaling, #3203, 1:500), Phospho-IRS-1 (Ser318) (Cell Signaling, #5610, 1:500), IRS-1 (Cell signaling, #3407, 1:500), Phospho-Akt (Ser473) (Cell Signaling, #4060, 1:1000), Phospho-Akt (Thr308) (Cell Signaling, #4056, 1:1000), Akt (pan) (Cell Signaling, #4691, 1:1000), Phospho-Erk1/2 (Thr202/Tyr204) (Cell Signaling, #4307, 1:1000), Erk1/2 (Cell Signaling, #9102, 1:1000), Phospho-GSK-3β (Ser9) (Cell Signaling, #9323, 1:1000), GSK-3β (Cell Signaling, #9315, 1:1000), Phospho-IGF-1 Receptor β ((Thy1135) (Cell Signaling, #3918, 1:500), IGF-1 Receptor β (Cell Signaling, #9750, 1:500). […] The intensity of the chemiluminescence signals were detected by using the ChemiDoc XRS+ System (Bio-Rad, 1708265) and quantified using Image Lab software (version 5.2; Bio-Rad). […]

[1] = tested on: IGF-1/Insulin induced AKT and Gsk3β activation; assay: IGF-1/Insulin induced Akt and Gsk3β activation in HCM with internal over-expression of IGFBP7; assay type: cell-based, human; conditions: HCM transfected with IGFBP7 plasmid, inhibitor 500 nM for 1 h before IGF-1 or Insulin 15 min
[2] = tested on: IGF-1 Receptor β and Akt phosphorylation; assay: IGF-1 receptor-dependent signaling (immunoblotting) in IGFBP7 deficient and WT MEF; assay type: cell-based; conditions: ppp 1 or 10 μM for 1 h, IGF-1 (100 ng/ml) 15 min
[3] = tested on: IGF-1/Insulin induced AKT activation; assay: IGF-1/Insulin induced AKT/GSK3β activation (immunoblotting) in human cardiac myocytes; assay type: cell-based; conditions: HCM with IGFBP7 siRNA, ppp pre-treatment 1 or 10 μM for 1 h, IGF-1 (100 ng/ml) 15 min
Procedure: Indeed, in FIG. 9, human cardiac myocytes were treated with (−)control siRNA and IGFBP7 siRNA for 48 h, followed by replacement with basic medium (serum and growth factors withdrew) for 4 h. In FIG. 9(a), the cells were then stimulated with IGF1 (100 ng/ml) or Insulin (4 μg/ml) for 15 min, before lyses of the cell for immunoblotting. Representative immunoblotting of phosphor-AKT, total AKT, phosph-GSK3β and total GSK3β are shown. GAPDH was used as loading control. In FIG. 9(b), before adding IGF-1, cells were pre-treated with IGF-1R inhibitor Picropodophyllin (PPP) ppp at 1 or 10 μM for 1 h, and finally stimulated with IGF-1 (100 ng/ml) for 15 min. Representative immunoblotting of phosphor-AKT and total AKT showing reduced AKT activity in IGFBP7 knock down cells is shown. GAPDH was used as loading control. […] GAPDH were used as loading control.
Whole-cell lysates from tissue and cell samples were prepared on ice with Cell Lysis Buffer (Cell Signaling, 9803) containing a Complete cocktail of proteases inhibitors (Roche Applied Science, 05892791001). […] The supernatants were collected and protein concentrations determined using the Bio-Rad Bradford protein assay (Bio-Rad, 500-0006). […] The intensity of the chemiluminescence signals were detected by using the ChemiDoc XRS+ System (Bio-Rad, 1708265) and quantified using Image Lab software (version 5.2; Bio-Rad). […]

[4] = tested on: IGF-1/Insulin induced AKT and Gsk3β activation; assay: Effect of external recombinant IGFBP7 protein on IGF-1/Insulin induced AKT and Gsk3β activation in HCM; assay type: cell-based, human; conditions: HCM pretreated with recombinant protein for 2 h, then IGF-1 or insulin 15 min
Procedure: HCM were pretreated with recombinant IGFBP7 protein at indicated concentration for 2 h, followed by IGF-1 or insulin induction for 15 min. Vinculin was used as loading control.
Whole-cell lysates from tissue and cell samples were prepared on ice with Cell Lysis Buffer (Cell Signaling, 9803) containing a Complete cocktail of proteases inhibitors (Roche Applied Science, 05892791001). Lysates were cleared by centrifugation at 12,000 rpm for 10 min. The supernatants were collected and protein concentrations determined using the Bio-Rad Bradford protein assay (Bio-Rad, 500-0006). 20 μg of protein lysate were separated by Bolt Bis-Tris Plus mini Gel System (ThermoFisher) and electrophoretically transferred to PVDF membranes (Bio-Rad, 162-0177). […] The intensity of the chemiluminescence signals were detected by using the ChemiDoc XRS+ System (Bio-Rad, 1708265) and quantified using Image Lab software (version 5.2; Bio-Rad). […]
To generate IGFBP7 expression plasmid, human IGFBP7 CDS with 6× His Epitope tag added to the 3′-end were generated by GeneArt gene synthesis and subcloned into pcDNA3.4 TOPO TA Cloning vector (ThermoFisher) to make plasmid pcDNA3.4-hIGFBP7-6× His. […] Expression of secreted IGFBP7-6× His recombinant protein in culture media was monitored daily by immonoblotting with anti 6× His Epitope Tag antibody (ThermoFisher, MA1-21315). […]

Molecule: CNC[C@H](O)c1cccc(O)c1 [phenylephrine]
- IGFBP7 protein expression (IGFBP7 protein; phenylephrine 200 nM): significantly up-regulated

Molecule: angiotensin II (DRVYIHPF; Angiotensin-2; UniProt P01019 25-32, looked up) [hypertrophic stimulus]
- IGFBP7 protein expression (IGFBP7 protein; 100 nM angiotensin II): significantly up-regulated

Molecule: C[C@@]1(C(=O)Nc2ccc(F)nc2)CCCN1c1nc(Nc2cc(C3CC3)n[nH]2)c2cccn2n1 [BMS-754807]
- IGF-1/Insulin induced AKT and GSK3β activation increased by internal over-expression of IGFBP7 [1]: blocked

Molecule: COc1cc([C@@H]2c3cc4c(cc3[C@H](O)[C@H]3COC(=O)[C@@H]23)OCO4)cc(OC)c1OC [Picropodophyllin, picropodophyllin]
- AKT phosphorylation in IGFBP7 deficient MEF [2]: further reduced
- AKT phosphorylation in WT MEF [2]: not in WT MEF
- IGF-1R phosphorylation in IGFBP7 deficient MEF [2]: further reduced
- AKT activation after IGF-1 stimulation in IGFBP7 knock down cells [3]: further reduced

Molecule: insulin
- IGFBP7 protein expression (IGFBP7 protein; insulin 4 μg/ml): significantly up-regulated

Molecule: CC(C)NCC(O)c1ccc(O)c(O)c1 (stereo not shown) [isoproterenol]
- IGFBP7 protein expression (IGFBP7 protein; isoproterenol 100 nM): significantly up-regulated

B1: recombinant IGFBP7 protein: recombinant human IGFBP7 protein with 6× His tag expressed in Expi293F cells (protein, UniProt Q16270 27-282, looked up)
Insulin-like growth …: SSSDTCGPCEPASCPPLPPLGCLLGETRDACGCCPMCARGEGEPCGGGGAGRGYCAPGMECVKSRKRRKGKAGAAAGGPGVSGVCVCKSRYPVCGSDGTTYPSGCQLRAASQRAESRGEKAITQVSKGTCEQGPSIVTPPKDIWNVTGAQVYLSCEVIGIPTPVLIWNKVKRGHYGVQRTELLPGDRDNLAIQTRGGPEKHEVTGWVLVSPLSKEDAGEYECHASNSQGQASASAKITVVDALHEIPVKKGEGAEL
modifications: 6xHis tag
notes: recombinant human IGFBP7 protein with 6× His tag expressed in Expi293F cells
- Effect on IGF-1/Insulin induced AKT and Gsk3β activation [4]: no observed effect
